Here are results for 75 molecules from the RepoRT retention time repository (doi:10.1016/j.chroma.2019.01.023).

What all share (conditions): stereoisomer not certain
Data set [1] can be described thus: HILIC, Waters ACQUITY UPLC BEH Amide, 150 × 2.1 mm, 1.7 µm, 40 °C, 0.5 mL/min, estimated dead time 0.66 min; A: 5% water + 95% acetonitrile; B: 70% water + 30% acetonitrile + 10 mM ammonium formate, pH 6.5; gradient (min/%B) 0/0 2/0 20/70 23/70 24/0 31/0.
Data set [2] in a line: HILIC, Merck SeQuant ZIC-pHILIC, 150 × 2.1 mm, 5 µm, 40 °C, 0.3 mL/min, estimated dead time 1.1 min; A: acetonitrile; B: water + 2.8 mM ammonium formate, pH 9; gradient (min/%B) 0/5 1/5 10/51 13/51 13.1/5 20/5.
Data set [3] in a line: RP, Phenomenex Kinetex C18, 150 × 2.1 mm, 1.7 µm, 30 °C, 0.3 mL/min, estimated dead time 1.1 min; A: water + 0.1% formic acid, pH 3; B: acetonitrile + 0.1% formic acid, pH 3; gradient (min/%B) 0/2 14/100 17/100 17.1/2 25/2.

Consider `O=C1OC(C(O)CO)C(O)C1O` [L-GULONOLACTONE], for which the LC retention time in data set [1] was 3.12 min; in data set [2], 7.2 min.
Take `Cn1cnc(C[C@H](N)C(=O)O)c1` [1-METHYL-L-HISTIDINE]: the LC retention time is 13.2 min in data set [1] and 8.97 min in data set [2].
As for `CNC(CCC(=O)O)C(=O)O` (stereo not drawn) [N-METHYLGLUTAMATE], the LC retention time is 11.1 min in data set [1] and 8.12 min in data set [2].
For `NCCC(=O)NC(Cc1cnc[nH]1)C(=O)O` (stereo not drawn) [CARNOSINE], the values for the LC retention time in data set [1] and in data set [2] were 12.3 min and 10.5 min, respectively.
Consider `NC(CSCC(=O)O)C(=O)O` (stereo not drawn) [S-CARBOXYMETHYLCYSTEINE], for which the results for the LC retention time in data set [1] and in data set [2] were 2.47 min and 6.4 min, respectively.
For the molecule `NC(=O)c1ccc[n+](C2OC(COP(=O)(O)OP(=O)(O)OCC3OC(n4cnc5c(=O)[nH]cnc54)C(O)C3O)C(O)C2O)c1` (stereo not drawn) [NICOTINAMIDE HYPOXANTHINE DINUCLEOTIDE], the LC retention time in data set [3] is 1.45 min.
As for `NC(=O)c1ccc[n+](C2OC(COP(=O)(O)OP(=O)(O)OCC3OC(n4cnc5c(N)ncnc54)C(OP(=O)(O)O)C3O)C(O)C2O)c1` (stereo not drawn) [NADP], in data set [3], the LC retention time was 1.41 min.
In the case of `Nc1ncnc2c1ncn2C1OC(COP(=O)(O)O)C(OP(=O)(O)O)C1O` (stereo not drawn) [ADENOSINE 3',5'-DIPHOSPHATE], in data set [3], the LC retention time is 1.36 min.
Still for that read-out and setting: the figure for `CCC(C(=O)O)C(=O)O` [ETHYLMALONATE] is 3.46 min.
`O=C([O-])c1cc(=O)[nH]c(=O)[nH]1` [OROTATE]: the LC retention time in data set [1] was 3.49 min; in data set [2] it was 7.34 min.
Regarding `CN1CC(=O)NC1=N` [CREATININE], the LC retention time in data set [1] was 4.34 min; in data set [2] it was 5.92 min.
Regarding `O=Cc1ccccc1` [BENZALDEHYDE], the LC retention time in data set [3] was 3.93 min.
For the molecule `OCC1OC(OC2(CO)OC(CO)C(O)C2O)C(O)C(O)C1O` (stereo not drawn) [SUCROSE], the results for the LC retention time in data set [1] and in data set [2] were 10.2 min and 8.77 min, respectively.
Turning to `NC(CCO)C(=O)O` (stereo not drawn) [HOMOSERINE], the LC retention time in data set [1] is 10.5 min; in data set [2], 8.91 min.
Take `NC1C(O)OC(COS(=O)(=O)O)C(O)C1O` (stereo not drawn) [GLUCOSAMINE 6-SULFATE]: the LC retention time in data set [1] was 10.6 min; in data set [2], 10.5 min.
For `CN(CC(=O)O)C(=N)N` [CREATINE], the LC retention time in data set [1] is 9.87 min; in data set [2], 8.59 min.
In the case of `OCC1OC(OCC2OC(O)C(O)C(O)C2O)C(O)C(O)C1O` (stereo not drawn) [MELIBIOSE], the LC retention time in data set [1] is 11.8 min; in data set [2], 9.37 min.
Consider `COC1OC(CO)C(O)C(O)C1O` (stereo not drawn) [METHYL GALACTOSIDE], for which the LC retention time in data set [1] is 4.01 min; in data set [2], 6.42 min.
As for `CC(C(=O)O)C(=O)O` [METHYLMALONATE], in data set [3], the LC retention time is 2.19 min.
Take `NC(N)=NC(CC(=O)O)C(=O)O` (stereo not drawn) [GUANIDINOSUCCINATE]: the LC retention time in data set [1] is 10.3 min; in data set [2], 9 min.
Take `NCC(N)C(=O)O` (stereo not drawn) [2,3-DIAMINOPROPIONATE]: in data set [3], the LC retention time is 2.37 min.
With `Cc1ccc(O)c(O)c1` [4-METHYLCATECHOL], the LC retention time in data set [3] was 3.31 min.
Turning to `O=C(O)Cc1cnc[nH]1` [4-IMIDAZOLEACETATE], the LC retention time in data set [1] is 9.86 min; in data set [2], 8.13 min.
On the same counts, the results for `NC(=O)NCCCC(N)C(=O)O` (stereo not drawn) [CITRULLINE] are 11.3 min and 9.31 min.
Consider `CC(=O)NC(CC(N)=O)C(=O)O` (stereo not drawn) [N-ACETYLASPARAGINE], for which the results for the LC retention time in data set [1] and in data set [2] were 8.1 min and 7.88 min, respectively.
On to `CN(C)c1ccc(N)cc1` [N,N-DIMETHYL-1,4-PHENYLENEDIAMINE], for which the LC retention time in data set [1] was 0.91 min.
For the molecule `CC(=O)NCCCCN` [N-ACETYLPUTRESCINE], the LC retention time in data set [1] was 8.45 min.
For `CC(C)C(N)C(=O)O` (stereo not drawn) [VALINE], the LC retention time is 8.75 min in data set [1] and 7.72 min in data set [2].
Consider `O=C1CC(C(=O)[O-])NC(=O)N1` (stereo not drawn) [DIHYDROOROTATE], for which the LC retention time in data set [1] was 7.2 min; in data set [2] it was 7.81 min.
On to `O=CC[C@@H](O)[C@H](O)[C@H](O)CO` [2-DEOXY-D-GLUCOSE], for which the values for the LC retention time in data set [1] and in data set [2] were 4.02 min and 8.23 min, respectively.
Take `CCC(O)C(=O)[O-]` (stereo not drawn) [2-HYDROXYBUTYRATE]: in data set [3], the LC retention time was 2.37 min.
Turning to `CCCCCCCCCCCCCCCC(O)C(N)CO` (stereo not drawn) [SPHINGANINE], in data set [1], the LC retention time was 5.14 min.
Same read-out and setting: the figure for `NCCc1ccc(O)cc1` [TYRAMINE] is 7.72 min; for `NCCC[C@@H](N)C(=O)O` [D-ORNITHINE] it is 14.4 min.
On to `OCC1OC(OC2OC(CO)C(O)C(O)C2O)C(O)C(O)C1O` (stereo not drawn) [TREHALOSE], for which the LC retention time in data set [1] was 11.3 min; in data set [2], 9.23 min.
Regarding `CC(=O)C(C)O` (stereo not drawn) [ACETOIN], the LC retention time in data set [1] is 8.78 min.
On to `NC(=O)NC1NC(=O)NC1=O` (stereo not drawn) [ALLANTOIN], for which the LC retention time in data set [1] was 4.85 min; in data set [2] it was 7.96 min.
As for `NCCS(=O)(=O)O` [TAURINE], the LC retention time in data set [1] was 8.04 min; in data set [2], 9.1 min.
On to `OC1C(O)C(O)C(O)C(O)C1O` (stereo not drawn) [MYOINOSITOL], for which the values for the LC retention time in data set [1] and in data set [2] were 11 min and 9.47 min, respectively.
As to `NC(N)=S` [THIOUREA], in data set [1], the LC retention time is 1.17 min.
In the case of `CNC(CC(=O)O)C(=O)O` (stereo not drawn) [N-METHYLASPARTATE], the LC retention time in data set [1] is 11.6 min; in data set [2], 8.28 min.
Turning to `O=C1CCCCO1` [5-VALEROLACTONE], the LC retention time in data set [1] was 1.14 min.
With `C=C(CC(=O)O)C(=O)O` [ITACONATE], the LC retention time in data set [3] was 3.16 min.
As for `NCCCC(=O)O` [GAMMA-AMINOBUTYRATE], the LC retention time in data set [1] is 10.2 min.
Turning to `C[N+](C)(C)CCOP(=O)(O)OP(=O)([O-])OCC1OC(n2ccc(N)nc2=O)C(O)C1O` (stereo not drawn) [CITICOLINE], the LC retention time in data set [1] was 13.4 min; in data set [2], 8.89 min.
For the molecule `CNCC(=O)O` [SARCOSINE], the LC retention time in data set [1] was 9.54 min.
In the case of `NC(=O)CCC(N)C(=O)O` (stereo not drawn) [GLUTAMINE], the figures for the LC retention time in data set [1] and in data set [2] were 11 min and 9.03 min, respectively.
Consider `CCCCCCCCCCCCCC=CC(O)C(COP(=O)([O-])OCC[N+](C)(C)C)NC(=O)CCCCCCCCCCCCCCCCC` (stereo not drawn) [SPHINGOMYELIN], for which the LC retention time in data set [1] was 5.7 min.
Same read-out and setting: in the case of `COc1cc(CCN)ccc1O` [3-METHOXYTYRAMINE] it was 0.84 min.
Take `Cc1ncc(COP(=O)(O)O)c(C=O)c1O` [PYRIDOXAL-PHOSPHATE]: the LC retention time in data set [3] is 1.5 min.
`NC(N)=NCCCC(N)C(=O)O` (stereo not drawn) [ARGININE]: the LC retention time in data set [1] is 14.2 min; in data set [2], 3.62 min.
On to `CN(C)C(N)=NCCCC(N)C(=O)O` (stereo not drawn) [N,N-DIMETHYLARGININE], for which, in data set [1], the LC retention time is 13 min.
For `Cn1cncc1CC(NC(=O)CCN)C(=O)O` (stereo not drawn) [ANSERINE], the LC retention time in data set [1] is 12.5 min; in data set [2], 10.1 min.
Regarding `NC(CC(=O)O)C(=O)O` (stereo not drawn) [ASPARTATE], in data set [1], the LC retention time is 1.93 min.
Turning to `NC(=O)CC(N)C(=O)O` (stereo not drawn) [ASPARAGINE], the LC retention time was 11.5 min in data set [1] and 9.25 min in data set [2].
With `CC(O)CC(=O)[O-]` (stereo not drawn) [3-HYDROXYBUTANOATE], the LC retention time in data set [1] was 1.37 min.
`O=CC(O)C1OC(=O)C(O)C1O` [D-GLUCURONOLACTONE]: the LC retention time was 1.86 min in data set [1] and 6.28 min in data set [2].
In the case of `O=C(O)C1CCCN1` (stereo not drawn) [PROLINE], the figures for the LC retention time in data set [1] and in data set [2] were 8.55 min and 7.67 min, respectively.
For `Cc1cnc(=O)[nH]c1N` [5-METHYLCYTOSINE], in that order: 5.31 min and 6.24 min.
In the case of `O=C([O-])Cc1ccccc1` [PHENYLACETATE], the LC retention time in data set [3] was 3.97 min.
For `CC(C)C(=O)O` [ISOBUTYRATE], the LC retention time in data set [1] is 8.79 min.
With `CC(=O)NC(CO)C(=O)O` (stereo not drawn) [N-ACETYLSERINE], the LC retention time in data set [1] was 5.57 min; in data set [2], 7.56 min.
Consider `CC(O)C(N)C(=O)O` (stereo not drawn) [THREONINE], for which, in data set [1], the LC retention time was 10.5 min.
For the molecule `O=CNCC(=O)O` [N-FORMYLGLYCINE], the LC retention time in data set [1] was 4.89 min; in data set [2] it was 7.76 min.
For `CC(C)CC(=O)C(=O)O` [KETOLEUCINE], the LC retention time in data set [1] is 1.86 min.
Take `C[N+](C)(C)CCCCC(N)C(=O)O` (stereo not drawn) [N,N,N-TRIMETHYLLYSINE]: in data set [1], the LC retention time is 0.83 min.
`C[n+]1cccc(C(=O)[O-])c1` [TRIGONELLINE]: the LC retention time in data set [1] was 7.85 min.
`O=c1cccc[nH]1` [2-HYDROXYPYRIDINE]: in data set [1], the LC retention time was 1.56 min.
In the case of `NC(CCCC(=O)O)C(=O)O` (stereo not drawn) [AMINOADIPATE], the LC retention time in data set [1] was 6.89 min; in data set [2], 8.78 min.
Consider `NCCc1cnc[nH]1` [HISTAMINE], for which, in data set [1], the LC retention time is 9.43 min.
On to `NC(=O)c1cccnc1` [NICOTINAMIDE], for which, in data set [1], the LC retention time was 1.38 min.
The same measure, in the same setting: in the case of `c1ccc2ncccc2c1` [QUINOLINE] it was 0.91 min.
Regarding `NC(CS(=O)(=O)O)C(=O)O` (stereo not drawn) [CYSTEATE], the results for the LC retention time in data set [1] and in data set [2] were 10.8 min and 8.92 min, respectively.
Consider `NCc1ccccc1` [BENZYLAMINE], for which, in data set [1], the LC retention time was 7.09 min.
As to `NC(N)=NCC(=O)O` [GUANIDINOACETATE], the LC retention time is 10.2 min in data set [1] and 9.05 min in data set [2].
